The source made the active and inactive calls.
Columns and labels:
Protein Wnt-3a = Protein Wnt-3a (Mus musculus, UniProt P27467); test: SAR analysis of small molecule antagonists of Gli-SUFU in a Wnt3a luminescent reporter assay.; type: functional
[1] = T. cruzi growth inhibition in host cells, dose response, cell-based, plate reader, dry powder, set 2 (AID 652275); type: functional
[2] = HepG2 cell cytotoxicity, dose response, cytotoxicity control for Shn3 inhibitor project, CellTiter-Glo, cherry-picked (AID 624134); type: functional, cell-based
Jurkat = test: antigen receptor-induced NF-kB inhibitors, dose response, Jurkat, luciferase reporter, luminescence, B- and T-cell (AID 489004); type: functional, cell-based; conditions: Homo sapiens;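 note: NF-kB luciferase reporter Jurkat cells stimulated with PMA plus ionomycin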
[3] = Shn3 3'UTR reporter inhibitors, dose response, cell-based, Clone20 osteoblasts, firefly luciferase, cherry-picked (AID 624132); type: functional;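 note: firefly luciferase luminescence from reporter carrying the Shn3 3'UTR in osteoblasts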
Galanin receptor type 3 = Galanin receptor type 3 (Homo sapiens, UniProt O60755); test: Fluorescence-based cell-based primary high throughput dose response assay to identify antagonists of the Galanin Receptor 3 (GalR3).; type: functional
cells [4] = type: functional, cell-based; conditions: HEK-CNG
[5] = cytotoxicity in HEK-293T NF-kB-Luc cells, dose response, cytotoxicity control for B/T-cell NF-kB inhibitor project, cell-based, uHTS hits (AID 489019); type: functional;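 note: IC50 reflects cytotoxicity as loss of cell viability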
[6] = control 3'UTR Renilla luciferase suppression, dose response, counter-screen for Shn3 inhibitor project, cell-based, Clone20-Shn3RL, cherry-picked (AID 624133); type: functional
INS1 = test: beta cell apoptosis inhibitors, cytokine rescue, dose response, luminescence, retest (AID 449756); type: functional, cell-based; conditions: Rattus norvegicus;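 note: cell death triggered by IL-1 beta plus TNF-alpha plus IFN-gamma mixture; protective hits raise ATP signal compared with cytokine alone wells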
[7] = target: T1, COUP transcription factor 2 (Homo sapiens, UniProt P24468); test: Luminescence-based cell-based high throughput dose response assay to identify inhibitors of COUP-TFII (NR2F2).; type: functional;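 note: HEK293 cells transiently cotransfected with COUP-TFII expression vector and reporter; luciferase reporter luminescence driven by COUP-TFII from the pX2-168 reporter plasmid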
T1 sequence (P24468 whole entry): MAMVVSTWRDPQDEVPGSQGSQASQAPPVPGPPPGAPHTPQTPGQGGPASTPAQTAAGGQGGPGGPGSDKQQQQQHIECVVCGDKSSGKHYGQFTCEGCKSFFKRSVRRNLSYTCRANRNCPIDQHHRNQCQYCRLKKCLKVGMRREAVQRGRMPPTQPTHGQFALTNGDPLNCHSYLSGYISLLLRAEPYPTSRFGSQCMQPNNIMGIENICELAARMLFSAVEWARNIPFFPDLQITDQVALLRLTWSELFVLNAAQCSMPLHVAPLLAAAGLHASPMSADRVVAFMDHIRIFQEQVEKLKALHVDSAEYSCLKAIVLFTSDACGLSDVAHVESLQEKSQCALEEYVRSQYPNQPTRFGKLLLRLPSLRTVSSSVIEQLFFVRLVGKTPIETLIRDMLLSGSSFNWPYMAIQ

[8] = reduction of Shn3 3'UTR firefly luciferase signal, dose response, Schnurri-3 inhibitor project, cell-based, Clone20 osteoblasts, cherry-pick, set 2 (AID 720490); type: functional;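 note: actives lower the luminescence signal as inhibitors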
[9] = target: T2, Zinc finger protein mex-5 (Caenorhabditis elegans, UniProt Q9XUB2); test: MEX-5/TCR-2 RNA interaction inhibitors, dose response, biochemical, C. elegans, fluorescence polarization (AID 1960)
T2 sequence (Q9XUB2 whole entry): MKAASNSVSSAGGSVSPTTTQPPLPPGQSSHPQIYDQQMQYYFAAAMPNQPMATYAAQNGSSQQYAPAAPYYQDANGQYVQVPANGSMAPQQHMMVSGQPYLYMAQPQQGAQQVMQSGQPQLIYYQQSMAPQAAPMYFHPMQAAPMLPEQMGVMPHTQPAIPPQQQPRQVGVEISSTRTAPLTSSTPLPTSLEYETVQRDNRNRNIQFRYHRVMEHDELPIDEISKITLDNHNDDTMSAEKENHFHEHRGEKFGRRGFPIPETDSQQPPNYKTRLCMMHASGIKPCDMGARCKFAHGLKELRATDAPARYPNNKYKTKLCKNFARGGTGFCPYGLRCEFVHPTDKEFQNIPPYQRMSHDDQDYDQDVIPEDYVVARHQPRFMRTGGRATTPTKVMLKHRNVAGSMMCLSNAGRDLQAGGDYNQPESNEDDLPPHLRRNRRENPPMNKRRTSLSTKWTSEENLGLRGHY

[10] = target: T3, RNA-binding protein pos-1 (Caenorhabditis elegans, UniProt G5EF15); test: inhibitors of POS-1/mex-3 RNA binding, dose response, biochemical, fluorescence polarization (AID 1964);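 note: purified POS-1 fused to maltose binding protein made in E. coli; potency of compounds blocking POS-1 binding to fluorescent RNA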
T3 sequence (G5EF15 whole entry): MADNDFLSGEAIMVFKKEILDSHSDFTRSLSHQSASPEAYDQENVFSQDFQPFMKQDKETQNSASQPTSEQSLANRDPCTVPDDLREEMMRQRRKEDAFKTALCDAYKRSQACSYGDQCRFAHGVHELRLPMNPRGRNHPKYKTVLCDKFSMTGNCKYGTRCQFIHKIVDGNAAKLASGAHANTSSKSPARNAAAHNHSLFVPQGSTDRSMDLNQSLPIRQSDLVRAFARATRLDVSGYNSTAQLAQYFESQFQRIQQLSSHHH

[11] = target: 1-phosphatidylinositol 4,5-bisphosphate phosphodiesterase beta-3 (Homo sapiens, UniProt Q01970); test: Fluorescence-based biochemical high throughput dose response assay to identify inhibitors of phospholipase C isozymes (PLC-B3).
[12] = target: 1-phosphatidylinositol 4,5-bisphosphate phosphodiesterase gamma-1 (Homo sapiens, UniProt P19174); test: Counterscreen for inhibitors of phospholipase C isozymes (PLC-B3): Fluorescence-based biochemical high throughput dose response assay to identify inhibitors of phospholipase C isozymes (PLC-gamma1).
H4 = test: Luminescence Cell-Based Dose Response HTS to Identify Activators of 5'UTR Stem-Loop Driven Prion Protein mRNA Translation in H4 Neuroglioblastoma Cells. [Related pubchem assays: 1829 (Project Summary), 1814 (Primary HTS)]; type: functional; conditions: Homo sapiens
cells [13] = type: functional, cell-based
Protein skinhead-1 = target: T4, Protein skinhead-1 (Caenorhabditis elegans, UniProt P34707); type: functional
T4 sequence (P34707 whole entry): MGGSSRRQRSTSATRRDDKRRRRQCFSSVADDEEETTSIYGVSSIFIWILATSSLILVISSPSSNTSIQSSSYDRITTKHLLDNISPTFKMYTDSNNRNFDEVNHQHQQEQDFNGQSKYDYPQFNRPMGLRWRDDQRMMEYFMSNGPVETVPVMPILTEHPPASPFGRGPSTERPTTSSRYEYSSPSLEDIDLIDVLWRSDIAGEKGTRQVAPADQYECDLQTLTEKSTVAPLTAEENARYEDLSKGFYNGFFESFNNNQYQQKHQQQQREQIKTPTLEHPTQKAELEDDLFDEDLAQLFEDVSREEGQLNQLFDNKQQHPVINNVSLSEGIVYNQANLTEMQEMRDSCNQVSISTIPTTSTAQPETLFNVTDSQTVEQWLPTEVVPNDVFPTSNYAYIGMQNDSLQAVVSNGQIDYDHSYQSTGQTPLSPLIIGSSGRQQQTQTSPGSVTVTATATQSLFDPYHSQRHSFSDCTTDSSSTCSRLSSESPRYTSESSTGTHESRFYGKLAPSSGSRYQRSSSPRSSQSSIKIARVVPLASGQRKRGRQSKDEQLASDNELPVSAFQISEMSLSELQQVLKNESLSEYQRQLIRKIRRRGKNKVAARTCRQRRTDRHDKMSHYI

[14] = HepG2 cell cytotoxicity, dose response, cytotoxicity control, ATP luminescence, cherry-pick, activator set 2 (AID 1053143); type: functional, cell-based
[15] = Luminescence Cell-Based Dose Response HTS to Identify Activators of Luciferase Translation or Activity in H4 […] Cells. [Related pubchem assays: 1829 (Project Summary), 1814 (Primary HTS)]; type: functional
cells [16] = type: functional, cell-based; remark: listed apart in the source
HEK293 = test: inhibitors of LMP1-driven NF-kB reporter, dose response, cell-based, HEK293, luciferase, cherry-pick (AID 588343); type: functional; conditions: Homo sapiens
[17] = Luminescence Cell-Based Dose Confirmation HTS to Identify Inhibitors of Platelet Dense Granule Release. [Related pubchem assays: 1663 (Primary HTS), 1678 (Summary of Project)]; type: functional
cells [18] = type: functional, cell-based; remark: listed apart in the source
[19] = target: T5, Nuclear receptor subfamily 0 group B member 1 (Homo sapiens, UniProt P51843); type: functional, cell-based;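 note: HEK293T cells transfected with SF-1 and DAX-1 plus StAR promoter luciferase reporter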
T5 sequence (P51843 whole entry): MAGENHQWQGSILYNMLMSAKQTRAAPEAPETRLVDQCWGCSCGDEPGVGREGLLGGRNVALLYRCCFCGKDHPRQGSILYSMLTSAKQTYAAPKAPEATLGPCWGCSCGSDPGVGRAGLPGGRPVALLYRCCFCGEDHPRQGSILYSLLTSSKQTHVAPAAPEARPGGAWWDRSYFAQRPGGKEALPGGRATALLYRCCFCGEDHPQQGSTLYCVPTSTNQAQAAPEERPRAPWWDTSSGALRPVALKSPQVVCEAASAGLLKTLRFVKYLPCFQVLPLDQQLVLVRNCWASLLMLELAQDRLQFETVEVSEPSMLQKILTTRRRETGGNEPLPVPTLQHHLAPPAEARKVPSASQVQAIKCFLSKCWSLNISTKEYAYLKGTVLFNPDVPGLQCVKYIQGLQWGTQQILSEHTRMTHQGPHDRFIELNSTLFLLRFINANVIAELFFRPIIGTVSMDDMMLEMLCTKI

[20] = target: Luciferin 4-monooxygenase (Photinus pyralis, UniProt P08659); test: firefly luciferase enzyme inhibitors, dose response, biochemical, luminescence (AID 1891)
[21] = LGR2 antagonists, dose response, cell-based, HEK293, CRE-luciferase reporter, cherry pick, set 2 (AID 743343); type: functional;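 note: transfected cells were stimulated with diluted bursicon conditioned medium after compound addition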
[22] = HEK293 cell cytotoxicity, dose response, cytotoxicity control, plate reader, cherry-picked samples (AID 743446); type: functional, cell-based
[23] = HepG2 cell cytotoxicity, dose response, cytotoxicity control, plate reader, cherry-pick, antagonist series (AID 743416); type: functional, cell-based
[24] = MC4R antagonists, dose response, counter-screen for LGR2 antagonist project, cell-based, plate reader, cherry pick (AID 743444); type: functional;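 note: transfected HEK 293 cells stimulated with alpha-MSH peptide; potency of inhibitors of the alpha-MSH evoked signal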
BJ [25] = test: cytotoxicity toward BJ-TERT-LT-ST fibroblasts, dose response, cell-based, RAS-independent, luminescence (AID 1935); type: functional; conditions: Homo sapiens;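 note: BJ fibroblasts immortalized with TERT plus LT and ST oncogenes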
[26] = A549 cell cytotoxicity, dose response, cytotoxicity control, plate reader, cherry-pick, antagonist series (AID 743412); type: functional, cell-based
BJ [27] = test: cytotoxicity toward BJ-TERT fibroblasts, dose response, cell-based, RAS-independent, luminescence (AID 1933); type: functional; conditions: Homo sapiens
[28] = target: Endoplasmic reticulum aminopeptidase 1 (Homo sapiens, UniProt Q9NZ08); test: ERAP1 aminopeptidase inhibitors, dose response, biochemical, cherry-pick, set 2, plate reader (AID 743314)
[29] = cytotoxicity toward DRD oncogenic fibroblasts, dose response, cell-based, non-viral oncogenic, luminescence (AID 1934); type: functional; conditions: Homo sapiens
BJ [30] = test: cells; type: functional, cell-based; conditions: Homo sapiens
Escherichia coli = test: microbe, parasite or virus in culture
[31] = target: Potassium channel subfamily K member 3 (Homo sapiens, UniProt O14649); test: TASK1 (KCNK3) potassium channel inhibitors, SAR follow-up, CHO cells, FluxOR thallium flux (AID 652212); type: functional

Sequence of 1-phosphatidylinositol 4,5-bisphosphate phosphodiesterase beta-3 (Q01970 whole entry): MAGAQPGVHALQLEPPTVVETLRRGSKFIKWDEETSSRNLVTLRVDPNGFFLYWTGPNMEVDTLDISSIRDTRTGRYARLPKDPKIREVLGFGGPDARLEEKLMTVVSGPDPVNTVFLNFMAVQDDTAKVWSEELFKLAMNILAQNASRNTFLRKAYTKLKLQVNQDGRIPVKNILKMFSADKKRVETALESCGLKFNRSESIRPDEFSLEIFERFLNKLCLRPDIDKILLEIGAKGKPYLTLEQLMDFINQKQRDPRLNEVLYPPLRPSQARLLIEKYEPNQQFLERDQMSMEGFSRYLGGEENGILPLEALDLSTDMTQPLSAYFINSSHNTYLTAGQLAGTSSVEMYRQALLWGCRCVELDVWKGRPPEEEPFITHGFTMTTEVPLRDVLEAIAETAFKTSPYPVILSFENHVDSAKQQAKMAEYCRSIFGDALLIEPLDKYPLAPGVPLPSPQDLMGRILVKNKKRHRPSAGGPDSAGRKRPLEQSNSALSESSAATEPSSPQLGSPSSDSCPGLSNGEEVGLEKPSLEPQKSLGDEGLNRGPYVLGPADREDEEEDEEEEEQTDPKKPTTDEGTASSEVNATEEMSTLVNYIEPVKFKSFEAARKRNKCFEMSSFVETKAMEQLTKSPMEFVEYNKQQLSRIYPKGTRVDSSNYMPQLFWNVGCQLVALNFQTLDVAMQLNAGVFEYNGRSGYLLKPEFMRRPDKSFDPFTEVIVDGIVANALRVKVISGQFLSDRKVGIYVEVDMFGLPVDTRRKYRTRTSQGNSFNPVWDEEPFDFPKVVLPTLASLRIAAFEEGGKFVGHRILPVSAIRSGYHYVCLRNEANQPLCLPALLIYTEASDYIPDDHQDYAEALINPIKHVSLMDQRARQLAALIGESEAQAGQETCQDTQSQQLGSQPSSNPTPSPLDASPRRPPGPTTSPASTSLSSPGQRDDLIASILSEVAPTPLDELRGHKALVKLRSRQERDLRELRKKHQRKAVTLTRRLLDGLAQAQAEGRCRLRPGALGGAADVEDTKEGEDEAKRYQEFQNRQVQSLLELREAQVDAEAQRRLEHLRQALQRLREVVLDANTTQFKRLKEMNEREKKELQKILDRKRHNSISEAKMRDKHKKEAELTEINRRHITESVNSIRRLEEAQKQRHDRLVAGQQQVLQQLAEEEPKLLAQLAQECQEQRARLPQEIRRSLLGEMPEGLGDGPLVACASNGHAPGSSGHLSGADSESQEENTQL
Sequence of Protein Wnt-3a (P27467 whole entry): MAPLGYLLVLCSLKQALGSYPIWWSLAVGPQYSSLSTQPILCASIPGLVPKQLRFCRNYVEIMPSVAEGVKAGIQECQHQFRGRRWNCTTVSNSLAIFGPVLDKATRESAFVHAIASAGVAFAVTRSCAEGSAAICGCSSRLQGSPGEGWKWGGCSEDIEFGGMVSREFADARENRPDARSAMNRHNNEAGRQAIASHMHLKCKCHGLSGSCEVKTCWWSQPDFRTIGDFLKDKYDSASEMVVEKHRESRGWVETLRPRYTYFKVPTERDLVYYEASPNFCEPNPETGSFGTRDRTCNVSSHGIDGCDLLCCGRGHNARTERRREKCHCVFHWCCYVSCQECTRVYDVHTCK
Sequence of Luciferin 4-monooxygenase (P08659 whole entry): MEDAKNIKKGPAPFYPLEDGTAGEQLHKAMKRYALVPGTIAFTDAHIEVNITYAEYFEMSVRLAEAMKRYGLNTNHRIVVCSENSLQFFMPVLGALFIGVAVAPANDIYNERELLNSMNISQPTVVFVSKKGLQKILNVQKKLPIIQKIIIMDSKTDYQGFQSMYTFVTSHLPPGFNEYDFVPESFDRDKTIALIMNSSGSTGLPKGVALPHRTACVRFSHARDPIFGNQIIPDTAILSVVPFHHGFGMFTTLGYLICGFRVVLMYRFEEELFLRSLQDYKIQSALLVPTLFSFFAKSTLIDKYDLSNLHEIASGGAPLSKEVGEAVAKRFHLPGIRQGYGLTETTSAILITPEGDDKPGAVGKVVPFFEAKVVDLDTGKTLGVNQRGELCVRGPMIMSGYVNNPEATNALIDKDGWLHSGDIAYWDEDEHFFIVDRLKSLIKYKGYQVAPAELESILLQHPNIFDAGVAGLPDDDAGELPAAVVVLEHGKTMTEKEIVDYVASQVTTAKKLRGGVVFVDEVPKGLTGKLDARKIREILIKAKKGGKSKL
Sequence of 1-phosphatidylinositol 4,5-bisphosphate phosphodiesterase gamma-1 (P19174 whole entry): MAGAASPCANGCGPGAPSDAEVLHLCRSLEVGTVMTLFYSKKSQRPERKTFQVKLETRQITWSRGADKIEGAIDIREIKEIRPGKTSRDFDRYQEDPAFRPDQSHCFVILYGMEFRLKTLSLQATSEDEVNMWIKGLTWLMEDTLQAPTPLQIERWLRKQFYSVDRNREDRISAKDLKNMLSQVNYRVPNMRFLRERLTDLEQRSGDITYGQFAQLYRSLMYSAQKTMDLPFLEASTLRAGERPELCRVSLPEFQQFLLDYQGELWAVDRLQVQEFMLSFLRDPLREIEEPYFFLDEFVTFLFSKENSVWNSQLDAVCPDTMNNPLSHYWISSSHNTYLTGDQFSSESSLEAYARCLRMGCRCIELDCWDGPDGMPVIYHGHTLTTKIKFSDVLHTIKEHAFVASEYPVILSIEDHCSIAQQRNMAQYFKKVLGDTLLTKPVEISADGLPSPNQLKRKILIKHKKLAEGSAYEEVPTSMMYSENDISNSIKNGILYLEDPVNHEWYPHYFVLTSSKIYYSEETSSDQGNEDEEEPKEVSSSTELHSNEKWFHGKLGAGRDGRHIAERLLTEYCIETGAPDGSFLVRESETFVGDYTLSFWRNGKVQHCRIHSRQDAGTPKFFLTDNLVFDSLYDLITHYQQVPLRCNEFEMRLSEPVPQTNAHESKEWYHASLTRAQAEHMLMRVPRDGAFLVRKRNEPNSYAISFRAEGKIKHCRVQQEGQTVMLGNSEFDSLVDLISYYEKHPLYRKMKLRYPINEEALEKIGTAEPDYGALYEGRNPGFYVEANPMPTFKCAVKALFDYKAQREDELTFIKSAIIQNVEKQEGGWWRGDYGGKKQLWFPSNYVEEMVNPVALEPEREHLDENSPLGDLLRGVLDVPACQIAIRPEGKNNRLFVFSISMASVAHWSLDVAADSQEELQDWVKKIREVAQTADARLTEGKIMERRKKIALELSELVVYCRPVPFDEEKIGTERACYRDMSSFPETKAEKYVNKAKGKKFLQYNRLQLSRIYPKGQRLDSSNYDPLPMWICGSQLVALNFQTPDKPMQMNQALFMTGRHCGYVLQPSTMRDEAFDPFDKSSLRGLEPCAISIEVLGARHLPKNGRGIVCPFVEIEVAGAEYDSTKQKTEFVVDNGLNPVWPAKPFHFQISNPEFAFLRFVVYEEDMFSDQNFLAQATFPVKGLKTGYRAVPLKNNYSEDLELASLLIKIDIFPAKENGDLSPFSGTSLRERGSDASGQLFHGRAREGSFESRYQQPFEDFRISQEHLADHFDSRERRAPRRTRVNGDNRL
Sequence of Endoplasmic reticulum aminopeptidase 1 (Q9NZ08 whole entry): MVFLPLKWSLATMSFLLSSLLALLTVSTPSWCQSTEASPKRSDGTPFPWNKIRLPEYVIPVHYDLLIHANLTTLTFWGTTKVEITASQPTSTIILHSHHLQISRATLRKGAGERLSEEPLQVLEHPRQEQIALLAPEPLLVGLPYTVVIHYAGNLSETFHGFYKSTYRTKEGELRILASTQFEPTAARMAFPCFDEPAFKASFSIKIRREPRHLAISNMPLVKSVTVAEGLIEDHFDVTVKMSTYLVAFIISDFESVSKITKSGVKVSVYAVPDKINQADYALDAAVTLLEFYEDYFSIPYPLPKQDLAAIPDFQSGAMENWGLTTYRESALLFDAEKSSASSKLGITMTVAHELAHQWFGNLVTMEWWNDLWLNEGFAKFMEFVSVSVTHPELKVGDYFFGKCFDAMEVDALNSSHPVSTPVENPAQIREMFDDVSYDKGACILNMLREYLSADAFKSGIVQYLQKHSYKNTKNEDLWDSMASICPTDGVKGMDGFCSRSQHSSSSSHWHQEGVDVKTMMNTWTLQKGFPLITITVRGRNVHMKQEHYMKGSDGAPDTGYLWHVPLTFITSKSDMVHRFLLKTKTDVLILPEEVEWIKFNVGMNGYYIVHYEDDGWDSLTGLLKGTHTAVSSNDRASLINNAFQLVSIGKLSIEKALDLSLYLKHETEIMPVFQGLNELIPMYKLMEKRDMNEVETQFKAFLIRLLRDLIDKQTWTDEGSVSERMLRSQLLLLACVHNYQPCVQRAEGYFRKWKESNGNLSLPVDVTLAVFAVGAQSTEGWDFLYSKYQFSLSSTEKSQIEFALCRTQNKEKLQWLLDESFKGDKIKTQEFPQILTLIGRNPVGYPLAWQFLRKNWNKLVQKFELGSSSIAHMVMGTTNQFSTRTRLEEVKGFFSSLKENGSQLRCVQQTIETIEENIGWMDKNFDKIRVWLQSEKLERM
Sequence of Galanin receptor type 3 (O60755 whole entry): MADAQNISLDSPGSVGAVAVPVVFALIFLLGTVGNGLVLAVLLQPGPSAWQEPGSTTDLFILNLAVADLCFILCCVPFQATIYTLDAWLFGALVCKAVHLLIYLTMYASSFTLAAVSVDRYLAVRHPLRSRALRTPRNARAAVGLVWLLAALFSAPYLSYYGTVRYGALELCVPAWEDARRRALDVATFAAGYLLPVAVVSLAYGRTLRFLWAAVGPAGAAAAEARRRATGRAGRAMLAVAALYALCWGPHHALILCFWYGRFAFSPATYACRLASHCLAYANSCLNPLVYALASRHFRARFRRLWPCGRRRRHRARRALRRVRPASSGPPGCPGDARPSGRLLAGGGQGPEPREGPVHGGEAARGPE

CC1CCCCN1c1cc(NC(=O)c2ccccc2)ncn1 (configuration not stated)
IC50 (Protein Wnt-3a): > 21.8 µM (inactive)

C[C@H]1CN([C@@H](C)CO)C(=O)c2cccc(NC(=O)c3ccncc3)c2O[C@@H]1CN(C)Cc1ccc(F)c(F)c1
AC50 [1]: 0.0246 µM (active)

COc1ccc(CN(C)c2ccc(S(=O)(=O)N3CCN(C)CC3)cc2[N+](=O)[O-])cc1OC
AC50 [2]: 0.824 µM (active) | IC50 (Jurkat): > 80 µM (inactive) | AC50 [3]: 0.691 µM (active) | IC50 (Galanin receptor type 3): 0.419 µM (active) | EC50 (cells [4]): > 29.9 µM (inactive) | IC50 [5]: > 80 µM (inactive) | AC50 [6]: 23.8 µM (active) | AC50 (INS1): 1.45 µM (active) | IC50 [7]: 2.05 µM (active)

CCn1c(C)cc(C(=O)COC(=O)c2ccccc2[N+](=O)[O-])c1C
IC50 (Jurkat): < 0.16 µM (active) | AC50 [8]: < 0.135 µM (active) | AC50 [3]: < 0.26 µM (active) | IC50 [5]: > 80 µM (inactive)

N#C/C(=C\c1cc(O)c(O)c(O)c1)C(N)=O
EC50 [9]: > 150 µM (inconclusive) | EC50 [10]: 134 µM (active) | IC50 [11]: > 122 µM (inactive) | IC50 [12]: > 122 µM (inactive)

O=C(NC1CCCC1)c1cc(-c2ccccc2)on1
EC50 (H4): 3.13 µM (active) | EC50 (cells [13]): > 350 µM (not active) | IC50 (Protein skinhead-1): > 100 µM (inactive) | AC50 [14]: 26 µM (active) | EC50 [15]: 0.355 µM (active) | EC50 (cells [16]): 330 µM (active)

Cc1ccnc(NC(=O)c2ccc(OCC3CCCO3)cc2)c1 (configuration not stated)
AC50 (HEK293): 2.57 µM (active) | EC50 [17]: 5.2 µM (active) | IC50 (cells [18]): > 67.5 µM (inactive) | AC50 [14]: 26 µM (active) | IC50 [19]: > 67.5 µM (inactive) | EC50 [20]: 7.94 µM (active)

CC(C)c1ccccc1NC(=O)Nc1ccc2c(c1)OCO2
IC50 [11]: > 123 µM (inactive) | IC50 [12]: > 123 µM (inactive)

O=C(Nc1cc(N2CCCCC2)ncn1)c1cccc2ccccc12
IC50 (Protein Wnt-3a): > 21.8 µM (inactive)

COc1cc(NC(=O)c2cccc3c(-c4cccnc4)coc23)cc(OC)c1OC
AC50 [21]: 11.2 µM (active) | AC50 [22]: 28.6 µM (active) | AC50 [2]: 57.5 µM (active) | AC50 [23]: > 52 µM (inactive) | AC50 [8]: 5.23 µM (active) | AC50 [3]: 0.978 µM (active) | AC50 [6]: 11.5 µM (active) | AC50 [24]: 11.2 µM (active)

Cc1cc2nc(-c3cccnc3O)[nH]c2cc1C
AC50 [21]: 2.48 µM (active) | EC50 [17]: 1.73 µM (active) | AC50 [22]: 6.43 µM (active) | EC50 (BJ [25]): 13.3 µM (active) | AC50 [23]: 7.17 µM (active) | AC50 [26]: 8.69 µM (active) | EC50 [20]: 1.07 µM (active) | EC50 (BJ [27]): 4.58 µM (active) | AC50 [28]: 7.63 µM (active) | AC50 [24]: 2.69 µM (active) | EC50 [29]: 4.3 µM (active) | AC50 (INS1): 3.23 µM (active) | EC50 (BJ [30]): 8.47 µM (active)

O=C(Nc1cccc(NC(=O)c2ccco2)c1)c1ccccc1
AC50 (Escherichia coli): 25 µM (active) | IC50 [31]: 0.036 µM (active)

From ChEMBL document CHEMBL1201862, “PubChem BioAssay data set” (2004)
